Results taken from publication PMC9916978, “Enantioselective Human Serum Albumin Binding of Apremilast: Liquid Chromatographic, Fluorescence and Molecular Docking Study” (International Journal of Molecular Sciences, 2023).

How the values were obtained:
[1] = biological target: T1, human serum albumin (HSA) (Homo sapiens, UniProt P02768); experiment: Albumin-bound percentage by zonal elution chromatography on Chiral-HSA column, extrapolated to zero organic modifier; type: binding; conditions: for Bound percentage (b%), Average + SD%: average over five organic modifiers
T1 construct: purchased Chiral Technologies Inc., a subsidiary of Daicel Chemical Industries Ltd
Source text: As it was observed, the decrease of the organic modifier percentage in the mobile phase caused an exponential increase in the retention times of both enantiomers. Therefore, for the calculations, the logarithm of the retention factors was plotted against the organic modifier proportion. With this conversion, a linear relationship was obtained, which could be easily extrapolated to zero for supposedly the best imitation of in vivo conditions. As the intercept of these linear equations, a k value is expressed that can be used to calculate the bound% according to Equation (7).
The separation factor (α) was calculated as follows:(6) α=k2/k1 where k1 and k2 are the retention factors of the first- and second-eluting enantiomer, respectively. The k values were used to calculate the albumin-bound percentage (b%) using Equation (7) by zonal elution chromatography:(7) b%=k/1+k·100

[2] = biological target: T1, human serum albumin (HSA); experiment: van 't Hoff thermodynamic analysis on the Chiral-HSA column; type: binding; conditions: 10 mM phosphate buffer/IPA 96/4 v/v%, 10–30 °C, transfer from mobile phase to HSA stationary phase
Description: The separation temperature is one of the main determinant factors that can affect selectivity, resolution, retention factor and even the elution order of enantiomers during HPLC enantioseparations. To investigate the effects of temperature and to gain a better understanding of the mechanistic aspects of the enantiodiscrimination process on the Chiral-HSA column, thermodynamic analysis was performed in a 10 mM phosphate buffer/IPA 96/4 v/v% mixture.
To understand the energetic interactions between the analytes and the stationary phase, the classical van ’t Hoff approach was applied assuming only enantioselective interaction sites on the stationary phase. However, it should be noted that it is more realistic if both enantioselective and non-enantioselective interactions are considered.
Van ’t Hoff plots were constructed according to Equation (1) by plotting the natural logarithm of the retention factor as a function of the inverse of the absolute temperature in the temperature range of 10–30 °C, with 5 °C increments (a higher temperature was not applied due to possible column damage) (1) lnk=[…]+ΔS^°/R+lnΦ where R stands for the universal gas constant, T is the temperature in Kelvin, and k is the retention factor of the individual enantiomers. ΔH° denotes the standard enthalpy, while ΔS° is the standard entropy change of transfer of the solute from the mobile phase to the stationary phase, and Φ is the phase ratio of the HSA column. If ΔH° is constant in the selected temperature range, a linear relationship is obtained between lnk and 1/T, with a slope of −ΔH°/R and an intercept of ΔS°/R + lnΦ. Since the value of the phase ratio is seldom known, ΔS°* values (ΔS°* = ΔS° + RlnΦ) are often used to compensate for the uncertainty in Φ [38, 39].
Similarly, the differences in the change of standard enthalpy Δ(ΔH°) and standard entropy Δ(ΔS°) for the two enantiomers moving from the mobile phase to the stationary phase were also calculated according to the modified van ’t Hoff equation:(2) lnα=−∆(∆H^°)/RT+∆(∆S^°)/R
The isoenantioselective temperatures (Tiso) were also calculated as the ratio between Δ(ΔH°) and Δ(ΔS°), according to Equation (3). Tiso represents the temperature at which the enthalpy contribution is compensated by the entropic term, which means that […] (Δ(ΔG°)) equals zero. The thermodynamic parameter Δ(ΔG°) provides information on the strength of binding between selector and selectant, with more negative values indicating a more efficient binding. Consequently, a value of Δ(ΔG°) = 0 means that there is no difference between the binding strength of the enantiomers; therefore, at Tiso, the two enantiomers co-elute, and no separation is achieved. (3) Tiso=∆(∆H^°)/∆(∆S^°) (4) ∆(∆G^°)=∆(∆H^°)−T∗∆(∆S^°)

[3] = extrapolation to zero percentage of 1-propanol
[4] = extrapolation to zero percentage of ACN
[5] = extrapolation to zero percentage of EtOH
[6] = extrapolation to zero percentage of IPA
[7] = extrapolation to zero percentage of MeOH

T1 sequence (P02768 25-609): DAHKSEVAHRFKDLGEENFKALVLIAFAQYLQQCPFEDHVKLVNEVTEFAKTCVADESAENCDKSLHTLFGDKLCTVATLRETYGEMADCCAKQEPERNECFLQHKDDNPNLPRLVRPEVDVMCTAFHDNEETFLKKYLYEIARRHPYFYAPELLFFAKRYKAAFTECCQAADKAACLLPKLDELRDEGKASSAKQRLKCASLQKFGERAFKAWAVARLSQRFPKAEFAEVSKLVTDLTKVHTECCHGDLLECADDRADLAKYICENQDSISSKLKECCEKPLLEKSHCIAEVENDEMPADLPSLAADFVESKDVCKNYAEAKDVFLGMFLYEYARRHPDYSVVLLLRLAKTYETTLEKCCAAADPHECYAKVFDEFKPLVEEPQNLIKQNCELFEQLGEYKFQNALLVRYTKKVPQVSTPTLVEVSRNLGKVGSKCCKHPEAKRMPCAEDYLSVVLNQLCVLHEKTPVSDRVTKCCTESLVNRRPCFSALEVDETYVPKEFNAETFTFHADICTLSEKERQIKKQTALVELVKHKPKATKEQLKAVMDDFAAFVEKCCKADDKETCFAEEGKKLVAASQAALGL

Bound percentage (b%), Average + SD% [1] [%]	Bound percentage (b%) [1, 3] [%]	Bound percentage (b%) [1, 4] [%]	Bound percentage (b%) [1, 5] [%]	Bound percentage (b%) [1, 6] [%]	Bound percentage (b%) [1, 7] [%]	Δ(Δ)G° [2] [kJ/mol]	Δ(Δ)H° [2] [kJ/mol]	Δ(Δ)S° [2] [J/molK]	SMILES
92.7 ± 1.5	94.0	91.3	91.4	92.1	94.5	-3.79	-26.52	−76.29	CCOc1cc([C@H](CS(C)(=O)=O)N2C(=O)c3cccc(NC(C)=O)c3C2=O)ccc1OC [R-APR]
95.5 ± 1.3	96.4	93.7	94.8	95.7	96.8	-4.42	-30.28	−86.78	CCOc1cc([C@@H](CS(C)(=O)=O)N2C(=O)c3cccc(NC(C)=O)c3C2=O)ccc1OC [S-APR, apremilast]
